Literature values as cited in patent US20070122482A1, “Method for preparing modified release pharmaceutical compositions” (priority 2003, published 2007).
Where a name gives a salt, the structure may show the parent alone. Read-outs that look alike come from different tables or passages of the source.

Experiments:
[1] = for Solubility in water: Table 1, Poorly-Soluble Drug Candidates; for Solubility In Water: Table 2, Poorly-Soluble Drugs with Low Bioavailability

Cc1nnc2n1-c1ccc(Cl)cc1C(c1ccccc1)=NC2 [Alprazolam]
Solubility in water [1]: Insoluble

CCOC(=O)C1=C(COCCN)NC(C)=C(C(=O)OC)C1c1ccccc1Cl (stereo not shown) [Amlodipine]
Solubility in water [1]: Slightly

COc1ccc(CCN2CCC(Nc3nc4ccccc4n3Cc3ccc(F)cc3)CC2)cc1 [Astemizole]
Solubility in water [1]: Insoluble | Solubility In Water [1]: Insoluble | Bioavailability (in words) (Table 2): Low-moderate

CC(=O)OC[C@H]1O[C@@H]([S-])[C@H](OC(C)=O)[C@@H](OC(C)=O)[C@@H]1OC(C)=O.CCP(CC)CC.[Au+] [Auranofin]
Solubility In Water [1]: Slightly soluble | Bioavailability (in vivo): Low (15-25%)

Cn1cnc([N+](=O)[O-])c1Sc1ncnc2nc[nH]c12 [Azathioprine]
Solubility in water [1]: Insoluble

CN1CCCC(n2nc(Cc3ccc(Cl)cc3)c3ccccc3c2=O)CC1 (stereo not shown) [Azelastine]
Solubility in water [1]: Insoluble

OC(CCN1CCCCC1)(c1ccccc1)C1CC2C=CC1C2 (stereo not shown) [Biperiden]
Solubility In Water [1]: Sparingly soluble

CCCC1O[C@@H]2C[C@H]3[C@@H]4CCC5=CC(=O)C=C[C@]5(C)[C@H]4[C@@H](O)C[C@]3(C)[C@]2(C(=O)CO)O1 (stereo partly shown) [Budesonide]
Solubility in water [1]: Sparingly | Solubility In Water [1]: Sparingly soluble | Bioavailability (Table 2): Low (˜15%)

C=CCC1(CC(C)C)C(=O)NC(=O)NC1=O [Butalbital]
Solubility in water [1]: Insoluble

NC(=O)N1c2ccccc2C=Cc2ccccc21 [Carbamazepine]
Solubility in water [1]: Insoluble

C[C@@](Cc1ccc(O)c(O)c1)(NN)C(=O)O [Carbidopa]
Solubility in water [1]: Slightly

CO/N=C(\C(=O)N[C@@H]1C(=O)N2C(C(=O)O)=C(COC(C)=O)CS[C@H]12)c1csc(N)n1 [Cefotaxime]
Solubility in water [1]: Sparingly

COc1cc(N)c(Cl)cc1C(=O)NC1CCN(CCCOc2ccc(F)cc2)CC1OC (stereo not shown) [Cisapride]
Solubility in water [1]: Insoluble | Solubility In Water [1]: Insoluble

CC[C@H]1OC(=O)[C@H](C)[C@@H](O[C@H]2C[C@@](C)(OC)[C@@H](O)[C@H](C)O2)[C@H](C)[C@@H](O[C@@H]2O[C@H](C)C[C@H](N(C)C)[C@H]2O)[C@](C)(OC)C[C@@H](C)C(=O)[C@H](C)[C@@H](O)[C@]1(C)O [Clarithromycin]
Solubility in water [1]: Insoluble

CN1CCC[C@@H]1CCO[C@](C)(c1ccccc1)c1ccc(Cl)cc1 [Clemastine fumarate]
Solubility In Water [1]: Slightly soluble | Bioavailability (Table 2): Low (˜39%)

CN1CCN(C2=Nc3cc(Cl)ccc3Nc3ccccc32)CC1 [Clozapine]
Solubility in water [1]: Slightly

CC1CC(OC(=O)C(O)c2ccccc2)CC(C)(C)C1 (stereo not shown) [Cyclandelate]
Solubility In Water [1]: Insoluble | Bioavailability (in words) (Table 2): Low

C#C[C@]1(O)CC[C@H]2[C@@H]3CCC4=Cc5oncc5C[C@]4(C)[C@H]3CC[C@@]21C [Danazol]
Bioavailability (in words) (Table 2): Low

O=C(O)Cc1ccccc1Nc1c(Cl)cccc1Cl [Diclofenac sodium]
Solubility in water [1]: Sparingly

OCCN(CCO)c1nc(N2CCCCC2)c2nc(N(CCO)CCO)nc(N3CCCCC3)c2n1 [Dipyridamole]
Solubility in water [1]: Slightly

CCCC(CCC)C(=O)O [Divalproex]
Solubility in water [1]: Slightly

CC(CCc1ccc(O)cc1)NCCc1ccc(O)c(O)c1 (stereo not shown) [Dobutamine]
Solubility in water [1]: Sparingly

COc1cc2nc(N3CCN(C(=O)C4COc5ccccc5O4)CC3)nc(N)c2cc1OC (stereo not shown) [Doxazosin]
Solubility in water [1]: Slightly

CCCCCc1cc(O)c2c(c1)OC(C)(C)[C@@H]1CCC(C)=C[C@@H]21 [Dronabinol]
Solubility In Water [1]: Insoluble

CCOC(=O)[C@H](CCc1ccccc1)N[C@@H](C)C(=O)N1CCC[C@H]1C(=O)O [Enalapril]
Solubility in water [1]: Sparingly

CCc1cccc2c3c([nH]c12)C(CC)(CC(=O)O)OCC3 (stereo not shown) [Etodolac]
Solubility in water [1]: Insoluble

COc1cc([C@@H]2c3cc4c(cc3[C@@H](O[C@@H]3O[C@@H]5CO[C@@H](C)O[C@H]5[C@H](O)[C@H]3O)[C@H]3COC(=O)[C@H]23)OCO4)cc(OC)c1O [Etoposide]
Solubility in water [1]: Very Slightly

NC(N)=Nc1nc(CSCCC(N)=NS(N)(=O)=O)cs1 [Famotidine]
Solubility in water [1]: Slightly | Solubility In Water [1]: Slightly soluble

CCOC(=O)C1=C(C)NC(C)=C(C(=O)OC)C1c1cccc(Cl)c1Cl (stereo not shown) [Felodipine]
Solubility in water [1]: Insoluble | Solubility In Water [1]: Insoluble

CC(C)(C)NC(=O)[C@H]1CC[C@H]2[C@@H]3CC[C@H]4NC(=O)C=C[C@]4(C)[C@H]3CC[C@]12C [Finasteride]
Solubility in water [1]: Insoluble

OC(Cn1cncn1)(Cn1cncn1)c1ccc(F)cc1F [Fluconazole]
Solubility in water [1]: Slightly

OCCN1CCN(CCCN2c3ccccc3Sc3ccc(C(F)(F)F)cc32)CC1 [Fluphenazine]
Solubility In Water [1]: Insoluble

CC(C(=O)O)c1ccc(-c2ccccc2)c(F)c1 (stereo not shown) [Flurbiprofen]
Solubility in water [1]: Slightly

COCCCC/C(=N\OCCN)c1ccc(C(F)(F)F)cc1 [Fluvoxamine]
Solubility in water [1]: Sparingly

COc1ccc(Cl)cc1C(=O)NCCc1ccc(S(=O)(=O)NC(=O)NC2CCCCC2)cc1 [Glyburide]
Solubility in water [1]: Sparingly

CC(C)Cc1ccc(C(C)C(=O)O)cc1 (stereo not shown) [Ibuprofen]
Solubility in water [1]: Insoluble

O=[N+]([O-])O[C@H]1CO[C@H]2[C@@H]1OC[C@H]2O[N+](=O)[O-] [Isosorbide dinitrate]
Solubility in water [1]: Sparingly | Solubility In Water [1]: Sparingly soluble

CC1=C(/C=C/C(C)=C/C=C/C(C)=C\C(=O)O)C(C)(C)CCC1 [Isotretinoin]
Solubility in water [1]: Insoluble

COC(=O)C1=C(C)NC(C)=C(C(=O)OC(C)C)C1c1cccc2nonc12 (stereo not shown) [Isradipine]
Solubility in water [1]: Insoluble | Solubility In Water [1]: Insoluble

CC(=O)N1CCN(c2ccc(OCC3COC(Cn4ccnc4)(c4ccc(Cl)cc4Cl)O3)cc2)CC1 (stereo not shown) [Ketoconazole]
Solubility in water [1]: Insoluble

Nc1nnc(-c2cccc(Cl)c2Cl)c(N)n1 [Lamotrigine]
Solubility in water [1]: Slightly

Cc1c(OCC(F)(F)F)ccnc1C[S+]([O-])c1nc2ccccc2[nH]1 (stereo not shown) [Lansoprazole]
Solubility in water [1]: Insoluble

CC[C@H](C)C(=O)O[C@H]1C[C@@H](C)C=C2C=C[C@H](C)[C@H](CC[C@@H]3C[C@@H](O)CC(=O)O3)[C@H]21 [Lovastatin]
Solubility in water [1]: Insoluble | Solubility In Water [1]: Insoluble

Cc1cccc(Nc2ccccc2C(=O)O)c1C [Mefenamic acid]
Solubility in water [1]: Slightly

Nc1ccc(O)c(C(=O)O)c1 [Mesalamine]
Bioavailability (Table 2): Low (˜20%)

Cc1ncc2n1-c1ccc(Cl)cc1C(c1ccccc1F)=NC2 [Midazolam]
Solubility in water [1]: Insoluble

C[C@@H]1C[C@H]2[C@@H]3CCC4=CC(=O)C=C[C@]4(C)[C@@]3(Cl)[C@@H](O)C[C@]2(C)[C@@]1(O)C(=O)CCl [Mometasone]
Solubility in water [1]: Insoluble

COc1ccc2cc(CCC(C)=O)ccc2c1 [Nabumetone]
Solubility in water [1]: Insoluble | Solubility In Water [1]: Insoluble

CO[C@]12C[C@@H](COC(=O)c3cncc(Br)c3)CN(C)[C@@H]1Cc1cn(C)c3cccc2c13 [Nicergoline]
Solubility in water [1]: Insoluble

CCn1cc(C(=O)O)c(=O)c2cc(F)c(N3CCNCC3)cc21 [Norfloxacin]
Solubility in water [1]: Slightly | Solubility In Water [1]: Slightly soluble

COc1ccc2[nH]c([S+]([O-])Cc3ncc(C)c(OC)c3C)nc2c1 (stereo not shown) [Omeprazole]
Solubility in water [1]: Slightly

CC(=O)O[C@H]1C(=O)[C@@]2(C)[C@H]([C@H](OC(=O)c3ccccc3)[C@]3(O)C[C@H](OC(=O)[C@H](O)[C@@H](NC(=O)c4ccccc4)c4ccccc4)C(C)=C1C3(C)C)[C@]1(OC(C)=O)CO[C@@H]1C[C@@H]2O [Paclitaxel]
Solubility in water [1]: Insoluble

OCCN1CCN(CCCN2c3ccccc3Sc3ccc(Cl)cc32)CC1 [Perphenazine]
Bioavailability (in words) (Table 2): Low

O=C1NC(=O)C(c2ccccc2)(c2ccccc2)N1 [Phenytoin]
Solubility in water [1]: Insoluble

CN1C(C(=O)Nc2ccccn2)=C(O)c2ccccc2S1(=O)=O [Piroxicam]
Solubility in water [1]: Sparingly

CCOC(=O)[C@H](CCc1ccccc1)N[C@@H](C)C(=O)N1Cc2ccccc2C[C@H]1C(=O)O [Quinapril]
Solubility in water [1]: Insoluble

CCOC(=O)[C@H](CCc1ccccc1)N[C@@H](C)C(=O)N1[C@H](C(=O)O)C[C@@H]2CCC[C@@H]21 [Ramipril]
Solubility in water [1]: Insoluble

CC(C)(C)NC(=O)[C@@H]1C[C@@H]2CCCC[C@@H]2CN1C[C@@H](O)[C@H](Cc1ccccc1)NC(=O)[C@H](CC(N)=O)NC(=O)c1ccc2ccccc2n1 [Saquinavir]
Solubility in water [1]: Practically insoluble

CN[C@H]1CC[C@@H](c2ccc(Cl)c(Cl)c2)c2ccccc21 [Sertraline]
Solubility in water [1]: Slightly | Solubility In Water [1]: Slightly soluble

CC(=O)S[C@@H]1CC2=CC(=O)CC[C@]2(C)[C@H]2CC[C@@]3(C)[C@@H](CC[C@@]34CCC(=O)O4)[C@H]12 [Spironolactone]
Solubility In Water [1]: Insoluble

CN(C/C=C/C#CC(C)(C)C)Cc1cccc2ccccc12 [Terbinafine]
Solubility in water [1]: Slightly

CC(C)(C)c1ccc(C(O)CCCN2CCC(C(O)(c3ccccc3)c3ccccc3)CC2)cc1 (stereo not shown) [Terfenadine]
Solubility in water [1]: Slightly

C[C@]12CC[C@H]3[C@@H](CCC4=CC(=O)CC[C@@]43C)[C@@H]1CC[C@@H]2O [Testosterone]
Solubility In Water [1]: Insoluble | Bioavailability (in words) (Table 2): Low

Cc1ccc(-c2nc3ccc(C)cn3c2CC(=O)N(C)C)cc1 [Zolpidem]
Solubility in water [1]: Sparingly

Cholestyramine
Solubility in water [1]: Insoluble
